Experiment: blood bilirubin in subjects with a UGT1A1 mutation receiving COMPOUND 1
Type: in vivo, human
Text: All toxicity ≥Grade 3 not due to underlying AML or complications of the disease or myelosuppressive treatment, with the exception of ≥Grade 3 blood bilirubin increases in subjects with a UGT1A1 mutation receiving COMPOUND 1.

With `CC(C)(O)CNc1nc(Nc2ccnc(C(F)(F)F)c2)nc(-c2cccc(C(F)(F)F)n2)n1` [COMPOUND 1, 2-methyl-1-[(4-[6-(trifluoromethyl)pyridin-2-yl]-6-{[2-(trifluoromethyl)pyridin-4-yl]amino}-1,3,5-triazin-2-yl)amino]propan-2-ol] the blood bilirubin increases was “isolated blood bilirubin increases have been seen”.
